Laboratory results: paper PMC7504435, “Combined Protein- and Ligand-Observed NMR Workflow to Screen Fragment Cocktails against Multiple Proteins: A Case Study Using Bromodomains” (Molecules, 2020)
Like-named read-outs stand apart in the source and are kept apart here.

Experiments:
PfGCN5 bromodomain [1] = target: T1, PfGCN5 bromodomain (Plasmodium falciparum, UniProt Q8IB67); assay: biochemical; format: binding; conditions: for Kd: PrOF NMR titration, for 9 average of W1454 and W1379, NS = non-saturating, read-out: PfGCN5 Kd; for Initial Mixture PfGCN5 PrOF NMR Δδ: hit mixture containing the fragment, 400 µM each fragment
Description: (§1) The screening workflow consists of two dependent steps: 1) a PrOF NMR screen of the 5FW-labeled proteins and a cocktail of 4–5 fragments in a single NMR tube; 2) a ^1H CPMG NMR binding assay to deconvolute the hit mixtures for each protein (Figure 1). In the first step, a dual-protein PrOF NMR spectrum was obtained in which 5FW-PfGCN5, 5FW-BPTF (~ 50 µM each) and mixtures of fragments (400 µM individual fragment) were present in the same NMR tube. […] Chemical shift perturbations indicating a ligand binding event were based on a prior cutoff of Δδ ≥ 0.030 ppm as the definition for a hit mixture. This cutoff was based on a statistical analysis of chemical shift perturbations from a prior BRD4 D1 fragment screen and are described further in the experimental section and in Table S2.
(§2) PrOF NMR. PrOF NMR spectra were obtained on a Bruker Avance III HD 500 with the 5 mm Prodigy TCI inverse cryoprobe (^19F S:N 2000:1). […] The DMSO concentration for all experiments was kept constant at 1%. […] For the PrOF NMR screen, 5FW-BPTF and 5FW-PfGCN5 (35–40 µM in 50 mM phosphate, 100 mM NaCl, pH 7.4) were tested with mixtures of 4–5 fragments, where each individual fragment was 400 µM. […] A 10 Hz line broadening was applied. Titrations were fit to Equation (2), where p is the protein concentration and L is the ligand concentration. (2) Δδ=Δδmax × (Kd+P+L ) − (((Kd + P + L )^2) − 4PL)/2P
(§3) A PrOF NMR binding event is characterized as a change in chemical shift (Δδ) from the protein-only spectrum to the protein + fragment mixture spectrum. We used a prior cutoff of Δδ ≥ 0.030 ppm as the definition of a hit mixture, based on a statistical analysis of chemical shift perturbations from a prior BRD4 D1 fragment screen.

PfGCN5 bromodomain [2] = target: T1, PfGCN5 bromodomain; assay: 1H CPMG NMR deconvolution of hit mixtures, PfGCN5; format: binding; conditions: 10 µM protein, 100 µM ligand; for 1H CPMG NMR % Drop in Resonance Intensity PfGCN5: for 9 from competition experiments (footnote a)
Description: (§4) The second step is a ^1H CPMG NMR deconvolution of the hit mixtures using the non-fluorine-labeled bromodomains. ^1H CPMG NMR employs a T2 filter to take advantage of the difference in transverse relaxation time between protein and small molecules to filter out the bound-state ligand(s). Unlike the PrOF NMR assay, a single protein is assayed in each experiment. A binding event is characterized by a decrease in ligand resonance intensity from the ligand alone spectrum to the ligand + protein spectrum. A hit is defined as a decrease in resonance intensity ≥ 20%. The ^1H CPMG NMR assay can be tuned by changing the protein or ligand concentration, filter length (Figure 1), or hit criteria depending on how stringent the desired hit rate is. The number of ^1H CPMG NMR deconvolution experiments is directly informed from the first step. If a mixture from the first step was only a hit for one protein, a single ^1H CPMG NMR deconvolution experiment is needed. If a mixture from the first step was a hit for both proteins, two separate ^1H CPMG NMR deconvolutions experiments are needed to determine the fragments that bind to each protein.
(§5) ^1H CPMG NMR. ^1H CPMG NMR screen data were acquired on Bruker Avance III HD 500 with the 5 mm Prodigy TCI cryoprobe inverse cryoprobe (^1H 2500:1 S/N). Competition ^1H CPMG NMR data were acquired on Bruker 700 MHz Avance with a CryoProbe 5 mm TXI (^1H S:N with H2O suppression (2mM sucrose) - 900:1) and excitation sculpting water suppression. Proteins were present at 10 µM in 50 mM phosphate, 100 mM NaCl, pH 7.4 in 100% D2O. In separate NMR tubes, a ^1H CPMG NMR pulse was applied to a 1) mixture of ligands (individual ligands present at 100 µM for the screen and 50 µM for competition experiments) and 2) ligands + protein. […] For the competition experiments, τ was increased to 4.0 ms.

BRD4 D1 = conditions: cited from earlier work; for Kd: data from previous screen
BPTF bromodomain [3] = target: T2, BPTF bromodomain (Homo sapiens, UniProt Q12830); assay: PrOF NMR (dual-protein screen of mixtures, titrations) with 5FW-BPTF; format: binding; design: against the bromodomains of BPTF and Plasmodium falciparum GCN5 (PfGCN5); his6; made in house; conditions: for Initial Mixture BPTF PrOF NMR Δδ: hit mixture containing the fragment, 400 µM each fragment
Description: as §1, §2, §3

PfGCN5 bromodomain [4] = target: T1, PfGCN5 bromodomain; assay: 1H-15N HSQC NMR titration with PfGCN5; format: binding; conditions: 1H-15N HSQC titration (Figure S14); read-out: Kd PfGCN5
Description: To cross-validate our findings, ^1H-^15N HSQC NMR was used to further examine the binding mode of 9 to PfGCN5 in the presence and absence of known ligands. The ^1H-^15N HSQC spectrum of PfGCN5 is unassigned. For ease of spectral interpretation, all resonances that were distinctly visible were assigned as 1-64. Fragment 9, GSK4027, and the acetylated peptide H2A.Z II K7,13ac were titrated against PfGCN5. At the highest ligand concentration, resonances with Δδ > x^− + 0.60*s, where x^− is the mean and s is the standard deviation at the highest concentration, were defined as significant. The correction factor of 0.60 is to compensate for only 60% of the resonances being usable for analysis. Titration of 9 with PfGCN5 gave linear and non-linear dose-dependent chemical shift perturbations. Of the five resonances with non-linear movement, only one (10) was considered to have significant movement. […] This affinity with the non-fluorine-labeled protein is similar but higher than the affinity determined by PrOF NMR. […]
^1H-^15N SOFAST HSQC.^1H-^15N SOFAST HSQC spectra were obtained on a Bruker 600 MHz Avance NEO with a CryoProbe 5 mm TCI (^1H, ^13C, ^15N, ^2H) w/ Z-gradient using Bruker’s IBS_SOFAST.x method with 32 scans, 0.05 s acquisition time, and 0.2 s delay. […] Data were processed with nmrDraw, nmrPipe, and NFRAM Sparky. Δδ^1H-^15N was calculated using Equation (3). […]

BPTF bromodomain [5] = target: T2, BPTF bromodomain; assay: 1H CPMG NMR deconvolution of hit mixtures, BPTF; format: binding; design: deconvolution of the hit mixtures using the non-fluorine-labeled bromodomains; made in house; host or cells: E. coli BL21(DE3); conditions: 10 µM protein, 100 µM ligand; for 1H CPMG NMR % Drop in Resonance Intensity BPTF: for 9 from competition experiments (footnote a)
Description: as §4, §5

PfGCN5 bromodomain [6] = target: T1, PfGCN5 bromodomain; assay: Competition 1H CPMG NMR with PfGCN5; format: binding; conditions: competitor at or above the protein concentration
Description: The competition ^1H CPMG NMR and PrOF NMR assays were employed to further probe the binding mode of 9 to PfGCN5. […] At high concentrations, at or above the protein concentration, the competition maxed out at ~ 50% (Figure 2, Figure S10, Table S5). Conversely, TP-238 was able to compete 9 off from BPTF at low concentrations.
^1H CPMG NMR. ^1H CPMG NMR screen data were acquired on Bruker Avance III HD 500 with the 5 mm Prodigy TCI cryoprobe inverse cryoprobe (^1H 2500:1 S/N). Competition ^1H CPMG NMR data were acquired on Bruker 700 MHz Avance with a CryoProbe 5 mm TXI (^1H S:N with H2O suppression (2mM sucrose) - 900:1) and excitation sculpting water suppression. Proteins were present at 10 µM in 50 mM phosphate, 100 mM NaCl, pH 7.4 in 100% D2O. In separate NMR tubes, a ^1H CPMG NMR pulse was applied to a 1) mixture of ligands (individual ligands present at 100 µM for the screen and 50 µM for competition experiments) and 2) ligands + protein. For competition experiments, the ligands were used individually, and the competitor ligands were spiked into tube 2. ^1H CPMG NMR parameters for the screen: NS = 128, acquisition time = 2 s, τ = 2.5 ms, and L = 120. For the competition experiments, τ was increased to 4.0 ms.

BPTF bromodomain [7] = target: T2, BPTF bromodomain; conditions: cited from earlier work
[8] = PrOF NMR titration, NS = non-saturating, NB = no binding

T1 sequence (Q8IB67 entry or part of it): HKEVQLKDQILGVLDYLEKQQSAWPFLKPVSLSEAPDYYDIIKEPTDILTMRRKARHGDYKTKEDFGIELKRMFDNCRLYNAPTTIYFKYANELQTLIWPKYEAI

Row | Compound | Kd (PfGCN5 bromodomain [1]) | Initial Mixture PfGCN5 PrOF NMR Δδ (PfGCN5 bromodomain [1]) | PfGCN5 CPMG % decrease (PfGCN5 bromodomain [2]) | 1H CPMG NMR % Drop in Resonance Intensity PfGCN5 (PfGCN5 bromodomain [2]) | Kd (BRD4 D1) | Initial Mixture BPTF PrOF NMR Δδ (BPTF bromodomain [3]) | BPTF CPMG % decrease (BPTF bromodomain [5]) | 1H CPMG NMR % Drop in Resonance Intensity BPTF (BPTF bromodomain [5]) | other results
1 | N#Cc1cccc(C(=O)NC2CCC3OCCOC3C2)c1 (centres unmarked) [Fragment 1] | > 1000 µM | ++ (++ = 0.050 < Δδ < 0.099) | 100% | +++++ (+++++ = 100%) | > 400 µM | - (For PrOF NMR = Δδ < 0.029 ppm) |  |  | 
2 | H2A.Z II K7,13ac: acetylated N-terminal tail peptide of a histone protein (AGGKAGKDSGKAKAK; acetyl-Lys7 and acetyl-Lys13 in mature numbering (UniProt K8 and K14); C-terminal amide expected from NovaSyn TGR resin) [reference compound] |  |  |  |  |  |  |  |  | Kd (PfGCN5 bromodomain [4]): 670 µM
3 | CS(=O)(=O)N1CCC2(CC1)OC(=O)c1ccccc12 [Fragment 7] | 150 µM | +++ (+++ = 0.1 < Δδ < 0.199) | 100% | +++++ (+++++ = 100%) | > 400 µM | +++ (+++ = 0.1 < Δδ < 0.199) | 49% | ++ (++ = 40–59.9%) | Kd (BPTF bromodomain [3]; PrOF NMR titration): > 1000 µM
4 | CC(C)CNc1ncc([N+](=O)[O-])c(N)n1 [Fragment 5] |  | - (For PrOF NMR = Δδ < 0.029 ppm) |  |  | > 400 µM | ++ (++ = 0.050 < Δδ < 0.099) | 65% | +++ (+++60–80%) | Kd (BPTF bromodomain [3]; [8]): > 1000 µM
5 | CN1C[C@H](Nc2cnn(C)c(=O)c2Br)C[C@H](c2ccccc2)C1 [GSK4027, reference compound] |  |  |  |  |  |  |  |  | PrOF NMR titration with 5FW-PfGCN5, result in words (PfGCN5 bromodomain [1]): binds PfGCN5 strongly; competition maximum in 1H CPMG NMR competition with 9 (PfGCN5 bromodomain [6]): ~ 50%
6 | COC(=O)N1CCC(CNC(=O)c2ccco2)CC1 [Fragment 2] | 360 µM | +++ (+++ = 0.1 < Δδ < 0.199) | 100% | +++++ (+++++ = 100%) | 450 µM | ++ (++ = 0.050 < Δδ < 0.099) |  |  | 
7 | CCC(=O)NCc1nccc(N(C)C)n1 [Fragment 3] | > 1000 µM | ++++ (++++ = Δδ > 0.2) | 82% | ++++ (++++ = 80–99.9%) | > 400 µM | - (For PrOF NMR = Δδ < 0.029 ppm) |  |  | 
8 | Cc1ccc2c(C#N)c(N)sc2c1 [Fragment 4] |  | - (For PrOF NMR = Δδ < 0.029 ppm) |  |  | > 400 µM | + (+ = 0.030 < Δδ < 0.049) | 100% | +++++ (+++++ = 100%) | BPTF Kd (BPTF bromodomain [3]; [8]): no binding; Kd (BPTF bromodomain [3]; [8]): > 1000 µM
9 | H2A.Z II K7,13ac peptide N-terminal tail (from UniProt Q71UI9) |  |  |  |  |  |  |  |  | Kd (BPTF bromodomain [7]): 310 µM
10 | Cc1cccc(NC(=O)C2CCN(S(C)(=O)=O)CC2)c1 [Fragment 6] |  | - (For PrOF NMR = Δδ < 0.029 ppm) |  |  | > 400 µM | + (+ = 0.030 < Δδ < 0.049) | 25% | + (+ = 20–39.9%) | selectivity, binds PfGCN5 over BPTF (PfGCN5 bromodomain [1]; ratio of Kd values): > 6 fold; Bind BRD4? (BRD4 D1; Y/N, previous screen): not bind; Kd (BPTF bromodomain [3]; [8]): 540 µM
11 | Cc1nnc2c3ccccc3c(N[C@@H](C)[C@H](c3ccccc3)N(C)C)nn12 [L-Moses, reference compound] |  |  |  |  |  |  |  |  | competition maximum in 1H CPMG NMR competition with 9 (PfGCN5 bromodomain [6]): ~ 50%
